Measurements from PMC6571972 (Pharmaceutics, 2019).
Read-outs that look alike come from different tables or passages of the source.

Tests used:
[1] = tested on: AtT20/D16v-F2 murine pituitary tumor cells; assay: in vitro cytotoxicity, MTT assay; assay type: cell-based
Procedure: In vitro cytotoxicity: To evaluate the cytotoxicity of conjugates and metabolites, AtT20/D16v-F2 murine pituitary tumor cells obtained from American Type Culture Collection (ATCC, Bethesda, MD, USA) were used. Cell viability was determined using the MTT (3-(4,5-dimethyl thiaz ol-2-yl)-2,5-diphenyltetrazolium bromide) assay. Briefly, cells in DMEM supplemented with 10% FBS, 1% L-glutamine, and 1% penicillin/streptomycin were seeded in 96-well culture plates (3000 cells/well) and incubated overnight in a humidified, 37 °C, 5% CO2 atmosphere to allow for adherence. The following day, cells were treated with serial dilutions of each compound starting at 100 nM for free drugs and 1000 nM for each one of the conjugates and incubated as described for 2 h. 0.1% DMSO served as a control. After incubation, the cells were washed once, media replaced, and incubation continued for further 70 h. At the end of treatment, 5 µL of MTT solution (5 mg/mL in deionized H2O, Sigma #M5655) was added to each well and the cells were incubated for another 2 h. Finally, 100 µL of lysis buffer (10% SDS, 10 mM HCl) was added, and the cells were placed in the incubator overnight for the formazan crystal solubilization. Absorbance at 540 nm was measured using a FLUOstar Omega (BMG Labtech) microplate reader and the growth inhibition ratio was calculated. Blank controls detecting cell-free media absorbance were performed in parallel. Three experimental replicates were used. The half-maximal inhibitory concentration values (IC50) were obtained from viability curves while using GraphPad Prism 6. Cell viability was expressed as percentage relative to the respective control conditions.

[2] = mouse; cited from earlier work
[3] = cited from earlier work
[4] = plasma stability in human plasma; assay type: in vitro ADME; details: 37 °C, read-out: Plasma Stability (t1/2 in h) Human (converted)
Procedure: (§1) Plasma stability: The sample preparation and the metabolic analysis of the conjugates was carried out similarly to the previously described method. Shortly, in a 96-well plate each conjugate and the control compound, procaine (3 mM, stock solution in DMSO) in three replicates were diluted with 250 μL of plasma to give a 3 µM concentration and then incubated at 37 °C. At each sample collecting time point, an aliquot of 30 µL was transferred into a 96-deep well plate and the reaction was stopped with 120 µL of acetonitrile containing 0.1% formic acid and 0.4 µg/mL of warfarin as the internal standard (IS). This mixture was centrifuged at 1100 ×g for 30 min at 4 °C and 50 µL of supernatant was transferred into a clean 96 deep-well plate and diluted with 50 µL of 0.1% formic acid in water. The samples were stored at -80 °C until analyses. Stability was determined based on LC-HRMS analysis of the disappearance of the compound as a function of incubation time, while using area ratio (analyte peak area vs internal standard peak area). The elimination constant k is calculated by plotting mean disappearance values on a semi-logarithmic scale and fitting with a best fit linear regression. The half-life (t1/2) expressed in hours is derived using the equation: t1/2 = ln2/(−k).

human SSTR2 = biological target: T1, human SSTR2 (Homo sapiens, UniProt P30874); assay: radioligand binding competition assay with SSTR2 membrane extract; details: competition with 3-[125I] iodotyrosyl11 Somatostatin 14, CHO-K1-SST2 membranes; for IC50: read-out: Binding Affinity (IC50 in nM)
T1 construct: membrane extract (recombinant CHO-K1-SST2 (NP_001041.1), 25 µL, 0.2 µg); expressed in transfected cells; host or cells: CHO-K1
T1 sequence (P30874 whole entry): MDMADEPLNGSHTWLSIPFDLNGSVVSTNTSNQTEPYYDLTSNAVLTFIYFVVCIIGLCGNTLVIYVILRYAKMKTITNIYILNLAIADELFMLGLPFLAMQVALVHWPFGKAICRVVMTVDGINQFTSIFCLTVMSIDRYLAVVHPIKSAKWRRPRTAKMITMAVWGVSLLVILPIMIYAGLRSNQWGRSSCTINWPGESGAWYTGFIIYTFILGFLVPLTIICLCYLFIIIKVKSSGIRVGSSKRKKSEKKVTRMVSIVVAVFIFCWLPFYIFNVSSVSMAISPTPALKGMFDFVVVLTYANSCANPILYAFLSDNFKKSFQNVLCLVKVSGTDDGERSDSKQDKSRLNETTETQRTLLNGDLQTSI
Procedure: The dilution of test compound (50 µL, maximum final DMSO concentration 3%), radioligand 3-[125I] iodotyrosyl11 Somatostatin 14 (Perkin Elmer, NEX389, 25 µL, 0.4 nM), and membrane extract (recombinant CHO-K1-SST2 (NP_001041.1), 25 µL, 0.2 µg) were successively added to a 96-well plate and then incubated at 25 °C for 60 min. It was filtered over GF/B Unifilter plate (Perkin Elmer, 6005177, pre-soaked in 0.5% PEI for 2 h at room temperature) with a Filtermate Harvester (Perkin Elmer). After rinsing the filters six times with 0.5 mL of ice-cold washing buffer (25 mM HEPES pH 7.4, 5 mM MgCl2, 1 mM CaCl2), 50 µL of Microscint 20 (Packard) was added to the filters and the samples were incubated 15 min on an orbital shaker and then counted with a TopCount™ for 1 min/well. The binding affinity was determined in duplicates by plotting the dose-response data to a nonlinear regression with variable slope.

[5] = plasma stability in murine plasma; assay type: in vitro ADME; details: mouse, 37 °C, read-out: Plasma Stability (t1/2 in h) Murine (converted)
Procedure: as §1

in vivo = details: mouse
From the text: Dose escalation experiments determined the maximum tolerated dose of the conjugate.

[6] = pharmacokinetics after i.v. injection; assay type: in vivo; details: 2.5 mg/kg i.v., heterozygous NCR mice
Procedure: Pharmacokinetics: To evaluate the pharmacokinetic profile of conjugate 8 and its fluorescence-labeled analogue 10, four-weeks-old female heterozygous NCR mice from Charles River were used. Animals were intravenously injected with 2.5 mg/kg (in 2% DMSO in water, dosed at 0.5 mg/mL) of each conjugate. Terminal blood samples were collected via cardiac puncture from animals under deep anesthesia at different time points (5, 15, 30, 60, 180, and 360 min, n = 3). The samples were rapidly transferred to lithium heparin-coated tubes, kept on ice, and subsequently centrifuged at 2000 ×g, 4 °C for 10 min. After centrifugation, plasma was collected and the samples were kept at -20 °C until analyses.

cathepsin B degradation = assay type: in vitro ADME, bovine; details: acetate buffer/EDTA/L-cysteine without enzyme; acetate buffer pH 5.5/EDTA/L-cysteine, 37 °C, after 6 h; read-out: compound remaining in buffer in the absence of enzyme
Procedure: (§2) Cathepsin B degradation: An aqueous solution of L-cysteine (0.28 M) was diluted 1:10 in acetate buffer/EDTA 1 mM pH 5.5, to achieve a working solution of 28 mM of L-cysteine. This solution was used to dilute cathepsin B from bovine spleen (Sigma Aldrich, C6286) to 1.11 U/mL. The cathepsin B solution was pre-incubated at 37 °C for 15 min and then split into 45 µL aliquots in Eppendorf tubes, with two replicates for each incubation time. 5 µL of substrate solution (50 µM in MeOH/H2O (1:1)) were added to each tube for a final concentration of 5 µM. Tubes corresponding to t0 contained 100 µL of 1% HCOOH in MeOH and they were put in an ice bath to inhibit the reaction. All of the other tubes were incubated at 37 °C in an oscillating thermostatic bath and the reaction was stopped at the following incubation times: 0.25, 0.5, 1, 2, 4, and 6 h, as described for the t0 samples. The samples were then centrifuged for 10 min at 14000 rpm at 4 °C and filtered through regenerated cellulose syringe filters prior to injection in the HPLC-ESI-MS system. Control solutions containing 5 µM substrate in acetate buffer pH 5.5/EDTA 1 mM/L-cysteine 28 mM were also prepared and then incubated up to 6 h at 37 °C in the absence of the enzyme to check the substrate stability under incubation conditions. Substrates and their possible cleavage products (Gly-Pro-Cry-55gly, Cry-55gly, and Cry-55) were quantified via calibration curves that were prepared in acetate buffer/EDTA/L-cysteine in the range 25–5000 nM.

[7] = biological target: T2, cathepsin B from bovine spleen (Bos taurus, UniProt P07688); assay: cathepsin B degradation; assay type: in vitro ADME; details: cathepsin B 1 U/mL
T2 construct: cathepsin B from bovine spleen (Sigma Aldrich, C6286); purchased Sigma Aldrich C6286; host or cells: bovine spleen (tissue-derived)
Procedure: as §2

AtT20 tumors = assay: in vivo antitumor efficacy; parameters: species or system BALB/c nude mice; details: 5 mg/kg i.v. once weekly for three weeks, AtT20 tumor-bearing mice
Procedure: (§3) Figure S1. Confocal microscopy images from conjugate 10 in SSTR2 positive cell line […]
(§4) Animal experiments were approved by the Committee for Animal Experiments of the […]
(§5) For in vivo tumor targeting and antitumor efficacy experiments, three million AtT20/D16v-F2 murine pituitary tumor cells in 100 µL PBS/Matrigel (v/v) were xenografted in the right flank of four-weeks-old female BALB/c nude mice (BALB/cAnNRj-Foxn1nu/nu, Janvier Labs). The experiments started around 15 days after implantation, when the animals started to show physical signs of the hormone releasing […]
In vivo antitumor efficacy
Animals bearing AtT20 tumors were randomized in three treatment groups (n=9) and injected intravenously with 5 mg/kg of conjugate 8 in 2% DMSO in water or a mix of […]
Treatment was given once a week for a total of three weeks. Vehicle treatment was used as control. Mice were weighed, and the tumor sizes were monitored with an electronic caliper. Tumor volume was calculated using the ellipsoid formula ν = π/6ꞏxꞏyꞏz.
Figure S2. In vivo antitumor efficacy of conjugate 8 compared to vehicle and unconjugated mix of cryptophycin and octreotide (left), and body weight quantification during treatment (right). […]

A549 cells = assay: live cell confocal microscopy, conjugate internalization in A549 cells; assay type: cell-based, human; details: A549 cells with low levels of SSTR2, 1 µM
AtT20 xenografts = assay: in vivo tumor targeting, whole body imaging; parameters: species or system nude mice; details: 1 mg/kg i.v.
Procedure: Tumor targeting studies: The fluorescence-labeled conjugate 10 (1 mg/kg in 2% DMSO in water) was intravenously injected in nude mice bearing AtT20 tumors. At each time point, whole body imaging was acquired using the Lago optical imaging system (Spectral Instruments Imaging), while mice were under isoflurane anesthesia (2.5%/20% O2).
as §3, §4, §5

AtT20 cells = assay: live cell confocal microscopy, conjugate internalization in AtT20 cells; assay type: cell-based, murine
[8] = 2 h treatment, wash, further 70 h, MTT, read-out: Cytotoxicity in AtT20 (IC50 in nM)

Molecule `COc1ccc(C[C@H]2NC(=O)/C=C/C[C@@H]([C@H](C)[C@@H](OC(=O)CNC(=O)[C@@H]3CCCN3C(=O)CN)[C@@H](Cl)c3ccccc3)OC(=O)[C@H](CC(C)C)OC(=O)C(C)(C)CNC2=O)cc1Cl` [Gly-Pro-Cry-55gly] has an IC50 ([1]; Mus musculus, AtT20, 2 h treatment, wash, further 70 h, MTT, read-out: Cytotoxicity in AtT20 (IC50 in nM)) of 6.05 nM.

In the case of `COc1ccc(C[C@H]2NC(=O)/C=C/C[C@@H]([C@H](C)[C@@H](OC(=O)CN)[C@@H](Cl)c3ccccc3)OC(=O)[C@H](CC(C)C)OC(=O)C(C)(C)CNC2=O)cc1Cl` [compound 3, cryptophycin-55 glycinate], the “Plasma Stability (t1/2 in h) Murine” value [2] is given as > 24 [48] h, the IC50 ([1]; Mus musculus, AtT20, read-out: Cytotoxicity in AtT20 (IC50 in nM)) is given as 3.53 nM and the “Plasma Stability (t1/2 in h) Human” value [3] is given as > 24 [48] h.

With `COc1ccc(C[C@H]2NC(=O)/C=C/C[C@@H]([C@H](C)[C@@H](OC(=O)CNC(=O)CNC(=O)[C@@H]3CCCN3C(=O)[C@H](CCCNC(N)=O)NC(=O)[C@@H](NC(=O)CCOCCOCCOCCOCCn3cc(CCC(=O)N[C@H](Cc4ccccc4)C(=O)N[C@H]4CSSC[C@@H](C(=O)N[C@H](CO)[C@@H](C)O)NC(=O)[C@H]([C@@H](C)O)NC(=O)[C@H](CCCCN)NC(=O)[C@@H](Cc5c[nH]c6ccccc56)NC(=O)[C@H](Cc5ccccc5)NC4=O)nn3)C(C)C)[C@@H](Cl)c3ccccc3)OC(=O)[C@H](CC(C)C)OC(=O)C(C)(C)CNC2=O)cc1Cl` [compound 7] the half-life at 3 µM [4] was 23 h, the IC50 (human SSTR2) was 0.6 nM and the IC50 [1, 8] was 51.2 nM. It also gave a half-life at 3 µM [5] of 0.5 h.

With `COc1ccc(C[C@H]2NC(=O)/C=C/C[C@@H]([C@H](C)[C@@H](OC(=O)CNC(=O)[C@@H]3CCCN3C(=O)CNC(=O)[C@H](CCCNC(N)=O)NC(=O)[C@@H](NC(=O)CCOCCOCCOCCOCCn3cc(CCC(=O)N[C@H](Cc4ccccc4)C(=O)N[C@H]4CSSC[C@@H](C(=O)N[C@H](CO)[C@@H](C)O)NC(=O)[C@H]([C@@H](C)O)NC(=O)[C@H](CCCCN)NC(=O)[C@@H](Cc5c[nH]c6ccccc56)NC(=O)[C@H](Cc5ccccc5)NC4=O)nn3)C(C)C)[C@@H](Cl)c3ccccc3)OC(=O)[C@H](CC(C)C)OC(=O)C(C)(C)CNC2=O)cc1Cl` [compound 8] the MTD (in vivo) was no less than 10 mg/kg, the half-life at 3 µM [4] was 24 h and the “area under the curve (AUC), comparison of 8 with 10” value [6] was “higher”. It also gave a half-life ([6]; female, mouse, plasma, iv, read-out: circulatory half-life) of 1.73 h, an IC50 (human SSTR2) of 1.3 nM and an IC50 [1, 8] of 8.37 nM. The remaining at 6 h, 5 µM (cathepsin B degradation) was 90%, the “cleavage by cathepsin B” value ([7]; 5 µM compound, 37 °C) was “readily cleaved” and the “release of cryptophycin-55 glycinate by self-immolation after cleavage” value ([7]; up to 6 h) was “no cryptophycin-55 glycinate (3) was found”. For the same molecule, the half-life at 3 µM [5] was greater than 24 h and the “antitumor efficacy (tumor volume)” value (AtT20 tumors) was “no therapeutic benefit”.

With `CC(C)[C@H](NC(=O)CCOCCOCCOCCOCCn1cc(CCC(=O)N[C@H](Cc2ccccc2)C(=O)N[C@H]2CSSC[C@@H](C(=O)N[C@H](CO)[C@@H](C)O)NC(=O)[C@H]([C@@H](C)O)NC(=O)[C@H](CCCCN)NC(=O)[C@@H](Cc3c[nH]c4ccccc34)NC(=O)[C@H](Cc3ccccc3)NC2=O)nn1)C(=O)N[C@@H](CCCNC(N)=O)C(=O)NCC(=O)N1CCC[C@H]1C(=O)NCCCCCCNC(=O)CCCCC[N+]1=C(/C=C/C=C/C=C2N(C)c3ccc4ccccc4c3C2(C)C)C(C)(C)c2c1ccc1ccccc21` [compound 10] the “internalization of the conjugate” value (A549 cells) was “no internalization was observed”, the “accumulation in the tumor” value (AtT20 xenografts; AtT20 xenografts) was “preferential accumulation” and the “duration of detection in tumor” value (AtT20 xenografts; tumors around 50 mm^3) was “up to seven”. The “internalization of the conjugate with excess free ligand” value (AtT20 cells; AtT20 cells, 100-fold excess of free octreotide) was “could be efficiently competed”, the “internalization of the conjugate” value (AtT20 cells; SSTR2 expressing AtT20 cells, 1 µM, after 10 min) was “effective internalization” and the “Binding Affinity (IC50 in nM)” value (human SSTR2) was “low nanomolar IC50”.
